Like-named read-outs stand apart in the source and are kept apart here.
What was measured:
Test in all cases: Kinase selectivity, DiscoverX scanMAX Kinase assay panel (% control)
Format in all cases: binding
[1] = target: T1, kinases of the scanMAX Kinase assay panel (Homo sapiens, UniProt P42336, H1047L); conditions: PIK3CA(H1047L); 1 uM
T1 construct: purchased DiscoverX Co. (contract measurement) scanMAX Kinase assay panel
In short: (§1)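 Percent of control computed as (compound − positive control)/(negative control − positive control) × 100, DMSO defining 100% and positive control 0%. Each panel kinase exposed to 1 uM compound; values under 35% taken to mean the compound acts on that kinase.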

[2] = target: T2, kinases of the scanMAX Kinase assay panel (Homo sapiens, UniProt O95835); conditions: LATS1; 1 uM
T2 construct: purchased DiscoverX Co. (contract measurement) scanMAX Kinase assay panel
T2 sequence (O95835 1-1130): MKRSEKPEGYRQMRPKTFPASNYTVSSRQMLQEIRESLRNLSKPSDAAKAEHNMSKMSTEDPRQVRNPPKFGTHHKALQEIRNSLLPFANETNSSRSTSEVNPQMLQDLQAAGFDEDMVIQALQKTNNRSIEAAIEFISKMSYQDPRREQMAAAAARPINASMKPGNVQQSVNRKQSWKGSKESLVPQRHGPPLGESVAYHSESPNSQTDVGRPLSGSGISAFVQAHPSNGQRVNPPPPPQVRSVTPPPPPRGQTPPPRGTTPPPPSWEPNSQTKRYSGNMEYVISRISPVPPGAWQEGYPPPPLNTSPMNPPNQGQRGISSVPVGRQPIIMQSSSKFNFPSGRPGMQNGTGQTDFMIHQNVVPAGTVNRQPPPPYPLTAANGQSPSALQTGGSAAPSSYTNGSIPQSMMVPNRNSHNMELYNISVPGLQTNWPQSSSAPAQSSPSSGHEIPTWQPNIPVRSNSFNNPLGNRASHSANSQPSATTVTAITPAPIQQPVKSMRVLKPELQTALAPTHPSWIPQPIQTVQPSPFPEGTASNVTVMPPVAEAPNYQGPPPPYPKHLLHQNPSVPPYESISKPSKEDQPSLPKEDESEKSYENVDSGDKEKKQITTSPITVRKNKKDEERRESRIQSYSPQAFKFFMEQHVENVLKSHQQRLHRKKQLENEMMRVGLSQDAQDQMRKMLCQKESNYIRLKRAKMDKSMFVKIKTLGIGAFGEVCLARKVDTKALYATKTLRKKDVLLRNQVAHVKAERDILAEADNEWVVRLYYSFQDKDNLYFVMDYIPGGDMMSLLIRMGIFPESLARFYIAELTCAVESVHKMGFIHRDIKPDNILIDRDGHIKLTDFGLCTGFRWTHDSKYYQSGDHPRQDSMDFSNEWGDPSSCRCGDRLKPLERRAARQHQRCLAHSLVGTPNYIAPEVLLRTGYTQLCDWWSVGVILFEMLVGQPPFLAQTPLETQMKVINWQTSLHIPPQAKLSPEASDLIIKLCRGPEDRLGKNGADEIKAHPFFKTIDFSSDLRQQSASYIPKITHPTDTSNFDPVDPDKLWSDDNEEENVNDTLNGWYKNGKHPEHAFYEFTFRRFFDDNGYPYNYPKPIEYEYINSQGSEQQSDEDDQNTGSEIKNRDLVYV
In short: as §1

[3] = target: T3, kinases of the scanMAX Kinase assay panel (Homo sapiens, UniProt P53667); conditions: LIMK1; 1 uM
T3 construct: purchased DiscoverX Co. (contract measurement) scanMAX Kinase assay panel
T3 sequence (P53667 whole entry): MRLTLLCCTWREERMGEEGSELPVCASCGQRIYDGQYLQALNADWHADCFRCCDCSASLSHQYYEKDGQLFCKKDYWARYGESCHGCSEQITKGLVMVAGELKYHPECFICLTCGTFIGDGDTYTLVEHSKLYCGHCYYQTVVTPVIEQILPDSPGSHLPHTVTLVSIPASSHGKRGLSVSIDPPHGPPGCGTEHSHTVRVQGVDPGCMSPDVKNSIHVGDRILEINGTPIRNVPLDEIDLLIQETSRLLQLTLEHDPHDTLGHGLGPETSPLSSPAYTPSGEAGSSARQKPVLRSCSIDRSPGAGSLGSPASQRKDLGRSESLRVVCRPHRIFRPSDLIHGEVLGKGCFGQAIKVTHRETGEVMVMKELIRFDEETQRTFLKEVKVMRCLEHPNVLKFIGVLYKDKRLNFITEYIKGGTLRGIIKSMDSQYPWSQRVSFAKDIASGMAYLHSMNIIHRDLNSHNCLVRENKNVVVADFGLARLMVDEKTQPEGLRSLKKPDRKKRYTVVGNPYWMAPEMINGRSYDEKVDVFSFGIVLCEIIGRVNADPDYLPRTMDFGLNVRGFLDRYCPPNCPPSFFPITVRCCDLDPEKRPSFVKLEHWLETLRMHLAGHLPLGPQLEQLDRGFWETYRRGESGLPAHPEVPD
In short: as §1

[4] = target: T4, kinases of the scanMAX Kinase assay panel (Homo sapiens, UniProt O75676); conditions: 1 uM in DMSO
T4 construct: purchased DiscoverX Co. (contract measurement) scanMAX Kinase assay panel
T4 sequence (O75676 whole entry): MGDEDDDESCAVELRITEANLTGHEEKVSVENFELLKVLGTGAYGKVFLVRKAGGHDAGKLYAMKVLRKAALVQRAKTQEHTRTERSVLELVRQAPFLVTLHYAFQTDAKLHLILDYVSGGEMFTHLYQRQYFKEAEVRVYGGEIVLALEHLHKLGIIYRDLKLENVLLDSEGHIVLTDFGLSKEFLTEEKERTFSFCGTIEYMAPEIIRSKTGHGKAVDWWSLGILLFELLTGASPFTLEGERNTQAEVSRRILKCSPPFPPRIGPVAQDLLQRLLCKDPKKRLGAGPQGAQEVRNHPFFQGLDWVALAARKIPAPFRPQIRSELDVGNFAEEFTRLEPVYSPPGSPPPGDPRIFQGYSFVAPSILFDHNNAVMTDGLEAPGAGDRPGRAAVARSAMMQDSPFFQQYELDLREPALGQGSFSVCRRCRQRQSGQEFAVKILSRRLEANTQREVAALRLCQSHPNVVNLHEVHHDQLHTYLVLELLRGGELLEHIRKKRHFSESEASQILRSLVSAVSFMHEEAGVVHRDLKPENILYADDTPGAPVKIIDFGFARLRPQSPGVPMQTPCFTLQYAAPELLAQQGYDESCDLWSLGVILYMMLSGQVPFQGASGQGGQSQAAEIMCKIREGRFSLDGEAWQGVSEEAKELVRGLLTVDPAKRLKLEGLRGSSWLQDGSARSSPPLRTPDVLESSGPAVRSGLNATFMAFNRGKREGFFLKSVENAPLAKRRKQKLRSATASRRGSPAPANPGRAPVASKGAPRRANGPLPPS
In short: as §1

[5] = target: T5, kinases of the scanMAX Kinase assay panel (Homo sapiens, UniProt P06239); conditions: LCK; 1 uM
T5 construct: purchased DiscoverX Co. (contract measurement) scanMAX Kinase assay panel
T5 sequence (P06239 whole entry): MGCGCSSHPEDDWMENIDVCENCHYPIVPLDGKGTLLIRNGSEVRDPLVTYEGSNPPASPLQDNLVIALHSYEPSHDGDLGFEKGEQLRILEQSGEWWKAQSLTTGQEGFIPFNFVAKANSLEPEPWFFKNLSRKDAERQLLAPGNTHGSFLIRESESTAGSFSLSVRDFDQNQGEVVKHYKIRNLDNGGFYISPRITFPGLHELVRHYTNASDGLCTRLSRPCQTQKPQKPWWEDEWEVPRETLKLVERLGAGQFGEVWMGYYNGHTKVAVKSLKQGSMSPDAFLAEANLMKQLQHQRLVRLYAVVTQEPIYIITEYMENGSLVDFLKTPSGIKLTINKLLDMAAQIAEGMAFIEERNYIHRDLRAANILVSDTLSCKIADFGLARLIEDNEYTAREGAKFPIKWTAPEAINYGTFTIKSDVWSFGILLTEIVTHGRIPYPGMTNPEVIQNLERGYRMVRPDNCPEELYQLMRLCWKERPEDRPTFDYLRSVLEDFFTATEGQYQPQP
In short: as §1

[6] = target: T6, kinases of the scanMAX Kinase assay panel (Homo sapiens, UniProt P28482); conditions: ERK2; 1 uM
T6 construct: purchased DiscoverX Co. (contract measurement) scanMAX Kinase assay panel
T6 sequence (P28482 whole entry): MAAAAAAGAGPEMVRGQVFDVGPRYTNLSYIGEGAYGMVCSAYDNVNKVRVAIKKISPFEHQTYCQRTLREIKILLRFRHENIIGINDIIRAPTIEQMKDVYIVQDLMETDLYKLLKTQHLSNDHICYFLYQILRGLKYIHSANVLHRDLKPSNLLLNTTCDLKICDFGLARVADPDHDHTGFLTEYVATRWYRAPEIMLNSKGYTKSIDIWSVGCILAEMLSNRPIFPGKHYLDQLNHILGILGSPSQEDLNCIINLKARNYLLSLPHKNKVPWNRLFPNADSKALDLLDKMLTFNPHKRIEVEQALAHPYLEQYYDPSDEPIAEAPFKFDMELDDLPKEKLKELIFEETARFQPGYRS
In short: as §1

[7] = target: T7, kinases of the scanMAX Kinase assay panel (Homo sapiens, UniProt Q8TDX7); conditions: NEK7; 1 uM
T7 construct: purchased DiscoverX Co. (contract measurement) scanMAX Kinase assay panel
T7 sequence (Q8TDX7 whole entry): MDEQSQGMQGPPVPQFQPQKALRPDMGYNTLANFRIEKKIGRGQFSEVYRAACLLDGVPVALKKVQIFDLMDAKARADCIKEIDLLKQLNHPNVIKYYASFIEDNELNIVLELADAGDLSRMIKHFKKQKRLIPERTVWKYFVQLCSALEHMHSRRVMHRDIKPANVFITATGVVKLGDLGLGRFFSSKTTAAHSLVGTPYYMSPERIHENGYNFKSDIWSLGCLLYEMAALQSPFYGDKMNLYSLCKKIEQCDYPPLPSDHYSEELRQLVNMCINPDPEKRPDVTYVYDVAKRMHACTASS
In short: as §1

[8] = target: T8, kinases of the scanMAX Kinase assay panel (Homo sapiens, UniProt Q9Y6E0); conditions: MST3; 1 uM
T8 construct: purchased DiscoverX Co. (contract measurement) scanMAX Kinase assay panel
T8 sequence (Q9Y6E0 whole entry): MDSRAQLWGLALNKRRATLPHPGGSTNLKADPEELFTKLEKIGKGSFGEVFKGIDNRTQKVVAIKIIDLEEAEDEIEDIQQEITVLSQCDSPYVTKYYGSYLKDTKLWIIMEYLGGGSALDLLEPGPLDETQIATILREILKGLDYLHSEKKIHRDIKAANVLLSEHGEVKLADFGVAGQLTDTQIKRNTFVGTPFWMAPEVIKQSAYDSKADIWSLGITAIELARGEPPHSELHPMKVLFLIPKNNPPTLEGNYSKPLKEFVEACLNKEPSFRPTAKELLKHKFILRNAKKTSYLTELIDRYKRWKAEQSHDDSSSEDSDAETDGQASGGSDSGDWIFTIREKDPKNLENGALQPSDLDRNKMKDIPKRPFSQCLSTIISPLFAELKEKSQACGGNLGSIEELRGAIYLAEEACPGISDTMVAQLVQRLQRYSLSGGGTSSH
In short: as §1

[9] = target: T9, kinases of the scanMAX Kinase assay panel (Homo sapiens, UniProt Q96BR1); conditions: kinase SGK3; 1 uM in DMSO
T9 construct: purchased DiscoverX Co. (contract measurement) scanMAX Kinase assay panel
T9 sequence (Q96BR1 1-496): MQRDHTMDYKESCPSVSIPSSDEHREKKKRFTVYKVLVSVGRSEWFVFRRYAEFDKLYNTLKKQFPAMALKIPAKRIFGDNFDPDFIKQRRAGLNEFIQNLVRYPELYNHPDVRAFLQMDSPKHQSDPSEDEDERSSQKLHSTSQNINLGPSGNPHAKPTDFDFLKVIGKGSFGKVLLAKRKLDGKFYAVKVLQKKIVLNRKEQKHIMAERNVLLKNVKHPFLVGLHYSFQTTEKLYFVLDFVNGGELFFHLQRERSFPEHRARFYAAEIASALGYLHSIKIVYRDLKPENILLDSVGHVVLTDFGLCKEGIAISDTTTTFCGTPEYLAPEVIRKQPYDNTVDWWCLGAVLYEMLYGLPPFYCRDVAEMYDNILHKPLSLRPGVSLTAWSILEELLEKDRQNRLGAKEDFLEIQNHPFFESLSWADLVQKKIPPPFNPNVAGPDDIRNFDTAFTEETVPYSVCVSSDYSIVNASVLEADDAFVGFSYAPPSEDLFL
In short: as §1

[10] = kinase RPS6KA4(Kin.Dom.1-N-terminal), read-out: % control, RPS6KA4(Kin.Dom.1-N-terminal)
[11] = kinase RPS6KA4(Kin.Dom.2-C-terminal), read-out: % control, RPS6KA4(Kin.Dom.2-C-terminal)

T1 sequence (P42336 whole entry H1047L): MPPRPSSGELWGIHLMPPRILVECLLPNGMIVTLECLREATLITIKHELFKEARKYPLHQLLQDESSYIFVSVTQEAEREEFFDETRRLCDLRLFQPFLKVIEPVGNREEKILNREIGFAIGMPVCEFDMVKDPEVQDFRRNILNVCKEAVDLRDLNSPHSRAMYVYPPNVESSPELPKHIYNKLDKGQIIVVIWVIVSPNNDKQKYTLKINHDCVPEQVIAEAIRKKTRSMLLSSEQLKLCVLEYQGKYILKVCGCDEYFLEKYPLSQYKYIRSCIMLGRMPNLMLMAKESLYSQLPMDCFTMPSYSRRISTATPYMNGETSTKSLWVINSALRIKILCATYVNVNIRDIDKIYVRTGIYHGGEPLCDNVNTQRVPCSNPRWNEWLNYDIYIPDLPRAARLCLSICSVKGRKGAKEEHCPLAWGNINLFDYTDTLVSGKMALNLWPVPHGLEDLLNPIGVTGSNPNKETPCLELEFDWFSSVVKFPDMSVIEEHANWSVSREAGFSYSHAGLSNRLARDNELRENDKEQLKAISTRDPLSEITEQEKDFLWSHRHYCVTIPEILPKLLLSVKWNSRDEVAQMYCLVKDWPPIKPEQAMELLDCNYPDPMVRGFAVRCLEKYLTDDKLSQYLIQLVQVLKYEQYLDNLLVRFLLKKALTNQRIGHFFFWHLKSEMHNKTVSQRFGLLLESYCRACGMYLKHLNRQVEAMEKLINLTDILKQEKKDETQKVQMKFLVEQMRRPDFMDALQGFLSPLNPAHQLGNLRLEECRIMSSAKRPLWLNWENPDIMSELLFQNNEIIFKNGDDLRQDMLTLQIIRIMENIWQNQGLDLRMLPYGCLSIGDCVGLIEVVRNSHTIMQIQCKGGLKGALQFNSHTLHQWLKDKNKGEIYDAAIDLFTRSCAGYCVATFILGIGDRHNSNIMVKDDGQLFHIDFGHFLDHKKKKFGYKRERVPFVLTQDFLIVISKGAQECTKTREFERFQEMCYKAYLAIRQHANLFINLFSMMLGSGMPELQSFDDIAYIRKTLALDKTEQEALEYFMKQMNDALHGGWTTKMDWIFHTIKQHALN

| SMILES | remaining binding at 1 µM [1] | remaining binding at 1 µM [2] | remaining binding at 1 µM [3] | remaining binding at 1 µM [4, 10] | remaining binding at 1 µM [4, 11] | remaining binding at 1 µM [5] | remaining binding at 1 µM [6] | remaining binding at 1 µM [7] | remaining binding at 1 µM [8] | remaining binding at 1 µM [9] |
| --- | --- | --- | --- | --- | --- | --- | --- | --- | --- | --- |
| CNc1nc(Nc2ccc(C(=O)N3CCOCC3)cc2OC)nc2[nH]cc(C#N)c12 [Example 1, 2-((2-methoxy-4-(morpholine-4-carbonyl)phenyl)amino)-4-(methylamino)-7H-pyrrolo[2,3-d]pyrimidine-5-carbonitrile] | 100% | 100% | 100% | 92% | 0.2% | 100% | 86% | 100% | 86% | 63% |
| CC1(Nc2nc(Nc3cnn([C@H]4CCN(C5COC5)C[C@@H]4F)c3Cl)nc3[nH]cc(C#N)c23)CC1 [Example 52, 2-((5-chloro-1-((3S,4S)-3-fluoro-1-(oxetane-3-yl)piperidine-4-yl)-1H-pyrazole-4-yl)amino)((1-methylcyclopropyl)amino)-7H-pyrrolo[2,3-d]pyrimidine-5-carbonitrile] | 70% | 35% | 98% | 68% | 2.2% | 19% | 54% | 97% | 25% | 70% |
| CCNc1nc(Nc2ccc(C(=O)N3CCC(N4CCOCC4)CC3)cc2OC)nc2[nH]cc(C(F)(F)F)c12 [Example 104, (4-((4-(ethylamino)-5-(trifluoromethyl)-7H-pyrrolo[2,3-d]pyrimidine-2-yl)amino)-3-methoxyphenyl)(4-morpholinopiperidine-1-yl)methanone] | 88% | 100% | 100% | 100% | 18% | 100% | 100% | 94% | 84% | 87% |

Reference: patent US11208412B2 (DAEGU-GYEONGBUK MEDICAL INNOVATION FOUNDATION, priority 2017, dated 2021)
